We go through one compound from PMC5699498 (Protein Science : A Publication of the Protein Society, 2017).

The test concerns the target Lpg2936 (Legionella pneumophila, UniProt Q5ZRE6). Kind of test: biochemical.

Lpg2936, sequence (Q5ZRE6 1-244 limits assumed): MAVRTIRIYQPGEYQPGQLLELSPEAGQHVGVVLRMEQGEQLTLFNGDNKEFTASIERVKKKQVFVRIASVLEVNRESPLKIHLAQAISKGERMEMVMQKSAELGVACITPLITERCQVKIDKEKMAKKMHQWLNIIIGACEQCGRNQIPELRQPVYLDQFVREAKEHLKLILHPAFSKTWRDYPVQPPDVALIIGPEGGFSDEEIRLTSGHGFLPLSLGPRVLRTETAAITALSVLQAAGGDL

The term Kd denotes the concentration at which binding is half-saturated. Turning to `C[S+](CC[C@H](N)C(=O)O)C[C@H]1O[C@@H](n2cnc3c(N)ncnc32)[C@H](O)[C@@H]1O` (stereo partly shown) [S‐adenosyl‐L‐methionine], the Kd was 12 nM.
